From PMC8775250, “Cryo-EM Structure of the Rhodobacter sphaeroides Light-Harvesting 2 Complex at 2.1 Å” (Biochemistry, 2021) come the findings set out here.

This assay has as its target T1, Rba. sphaeroides LH2 complex (light-harvesting 2 antenna, LH2 αβ) (Cereibacter sphaeroides, UniProt Q3J144+Q3J145).
T1 construct: gene pucA; native untagged complex purified from Rba. sphaeroides B7 membranes in LDAO; nonamer of αβ heterodimers; alpha N-terminal carboxymethionine; beta C-terminus Gly51
Nature of the assay: cryo-EM structure ([…] Å). Type of assay: binding. Particulars: one carotenoid per αβ heterodimer (9 per nonamer); native bound pigment; pH 7.8, LDAO.

T1 sequence (Q3J145 whole entry): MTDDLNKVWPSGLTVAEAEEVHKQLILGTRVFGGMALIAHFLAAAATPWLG
T1 sequence (Q3J144 1-50): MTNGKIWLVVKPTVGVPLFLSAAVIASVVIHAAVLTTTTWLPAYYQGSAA

In the case of `COC(C)(C)C/C=C/C(C)=C/C=C/C(C)=C/C=C/C(C)=C/C=C/C=C(C)/C=C/C=C(\C)CC/C=C(\C)CCC=C(C)C` [spheroidene], the “cryo-EM structure (2.1 Å)” value is on record as “the carotenoid spheroidene adopts an all-trans conformation as it winds through the LH2 complex”.
